Activity calls are given as the source filed them. The calls are words filed in the database; no cut-off is given here.
Experiments:
[1] = Metabolic stability in human microsomes assessed as half life; assay type: ADME, Microsome
LNCaP = experiment: Antiproliferative activity against PTEN deficient human LNCAP cells after 3 days by MTS assay; assay type: functional, cell-based; details: 72 h
[2] = molecular target: Phosphatidylinositol 4,5-bisphosphate 3-kinase catalytic subunit alpha isoform (Homo sapiens, UniProt P42336); experiment: Binding affinity to PI3Kalpha by fluorescence polarization assay
Phosphatidylinositol 4,5-bisphosphate 3-kinase catalytic subunit alpha isoform, sequence (P42336 whole entry, canonical isoform): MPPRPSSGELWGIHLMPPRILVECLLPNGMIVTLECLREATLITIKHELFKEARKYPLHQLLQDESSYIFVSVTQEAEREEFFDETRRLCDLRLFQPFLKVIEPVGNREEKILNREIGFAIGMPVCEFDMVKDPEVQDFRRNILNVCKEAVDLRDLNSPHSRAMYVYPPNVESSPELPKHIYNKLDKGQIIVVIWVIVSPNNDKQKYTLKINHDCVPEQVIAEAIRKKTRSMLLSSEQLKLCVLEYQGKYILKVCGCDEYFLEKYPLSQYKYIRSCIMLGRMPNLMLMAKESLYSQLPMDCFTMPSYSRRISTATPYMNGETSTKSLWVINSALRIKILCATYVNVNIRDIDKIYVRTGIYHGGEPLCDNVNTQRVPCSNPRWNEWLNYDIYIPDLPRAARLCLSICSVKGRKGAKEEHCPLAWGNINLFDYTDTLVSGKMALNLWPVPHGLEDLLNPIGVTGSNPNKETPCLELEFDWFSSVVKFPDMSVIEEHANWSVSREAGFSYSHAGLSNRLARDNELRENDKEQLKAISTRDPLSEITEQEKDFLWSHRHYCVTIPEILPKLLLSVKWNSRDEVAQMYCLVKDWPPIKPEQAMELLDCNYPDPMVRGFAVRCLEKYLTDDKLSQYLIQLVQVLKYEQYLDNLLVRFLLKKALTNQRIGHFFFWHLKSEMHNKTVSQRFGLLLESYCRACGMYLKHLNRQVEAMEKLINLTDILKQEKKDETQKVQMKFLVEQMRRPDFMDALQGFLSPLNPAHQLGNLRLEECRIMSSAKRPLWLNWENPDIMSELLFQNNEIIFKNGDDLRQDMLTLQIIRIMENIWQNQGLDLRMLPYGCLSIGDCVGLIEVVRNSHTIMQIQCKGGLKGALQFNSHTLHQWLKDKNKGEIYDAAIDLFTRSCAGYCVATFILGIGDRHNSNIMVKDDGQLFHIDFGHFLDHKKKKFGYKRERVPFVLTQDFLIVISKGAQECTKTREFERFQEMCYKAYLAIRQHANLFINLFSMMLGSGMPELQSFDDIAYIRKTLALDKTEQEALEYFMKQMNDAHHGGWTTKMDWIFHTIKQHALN

[3] = Selectivity ratio, IC50 for PI3Kalpha to IC50 for human FLAG-tagged mTOR
[4] = Antiproliferative activity against PTEN deficient human MDA468 cells after 3 days by MTS assay; assay type: functional, cell-based; details: MDA-MB-468, 72 h
[5] = molecular target: Serine/threonine-protein kinase mTOR (Homo sapiens, UniProt P42345); experiment: Inhibition of human FLAG-tagged mTOR expressed in HEK293 cells after 2 hrs by DELFIA; assay type: cell-based
[6] = Solubility at pH 3; assay type: physicochemical; details: buffer
MDA-MB-361 [7] = experiment: Antitumor activity against human MDA-MB-361 cells xenografted in nude mouse assessed as inhibition of tumor growth at 20 mg/kg, iv every 5 days for 21 days; assay type: functional, organism-based; design: dose 20 mg/kg
[8] = Plasma concentration in nude mouse at 25 mg/kg, iv after 8 hrs; assay type: ADME, organism-based; design: dose 25 mg/kg, route intravenous
Mus musculus [9] = experiment: Toxicity in nude mouse xenografted with human MDA-MB-361 cells at 10 to 25 mg/kg, iv administered daily; assay type: organism-based; design: dose 10-25 mg/kg, route intravenous; details: in vivo
Mus musculus [10] = experiment: Inhibition of TORC1 in human MDA-MB-361 cells xenografted nude mouse assessed as p70-S6K level at 25 mg/kg, iv; assay type: functional, organism-based; design: dose 25 mg/kg
Mus musculus [11] = experiment: Inhibition of TORC2 in human MDA-MB-361 cells xenografted nude mouse assessed as p-AKT S473 level at 25 mg/kg, iv; assay type: functional, organism-based; design: dose 25 mg/kg
MDA-MB-361 [12] = experiment: Inhibition of mTORC2 in human MDA-MB-361 cells assessed as phosphorylated AKT S473 level at 25 nM
[13] = Volume of distribution at steady state in nude mouse at 5 mg/kg, iv; assay type: ADME, organism-based; design: dose 5 mg/kg, route intravenous; details: in vivo, read-out: Vdss
[14] = molecular target: Phosphatidylinositol 4,5-bisphosphate 3-kinase catalytic subunit beta isoform (Homo sapiens, UniProt P42338); experiment: Inhibition of PI3Kbeta
Phosphatidylinositol 4,5-bisphosphate 3-kinase catalytic subunit beta isoform, sequence (P42338 whole entry, canonical isoform): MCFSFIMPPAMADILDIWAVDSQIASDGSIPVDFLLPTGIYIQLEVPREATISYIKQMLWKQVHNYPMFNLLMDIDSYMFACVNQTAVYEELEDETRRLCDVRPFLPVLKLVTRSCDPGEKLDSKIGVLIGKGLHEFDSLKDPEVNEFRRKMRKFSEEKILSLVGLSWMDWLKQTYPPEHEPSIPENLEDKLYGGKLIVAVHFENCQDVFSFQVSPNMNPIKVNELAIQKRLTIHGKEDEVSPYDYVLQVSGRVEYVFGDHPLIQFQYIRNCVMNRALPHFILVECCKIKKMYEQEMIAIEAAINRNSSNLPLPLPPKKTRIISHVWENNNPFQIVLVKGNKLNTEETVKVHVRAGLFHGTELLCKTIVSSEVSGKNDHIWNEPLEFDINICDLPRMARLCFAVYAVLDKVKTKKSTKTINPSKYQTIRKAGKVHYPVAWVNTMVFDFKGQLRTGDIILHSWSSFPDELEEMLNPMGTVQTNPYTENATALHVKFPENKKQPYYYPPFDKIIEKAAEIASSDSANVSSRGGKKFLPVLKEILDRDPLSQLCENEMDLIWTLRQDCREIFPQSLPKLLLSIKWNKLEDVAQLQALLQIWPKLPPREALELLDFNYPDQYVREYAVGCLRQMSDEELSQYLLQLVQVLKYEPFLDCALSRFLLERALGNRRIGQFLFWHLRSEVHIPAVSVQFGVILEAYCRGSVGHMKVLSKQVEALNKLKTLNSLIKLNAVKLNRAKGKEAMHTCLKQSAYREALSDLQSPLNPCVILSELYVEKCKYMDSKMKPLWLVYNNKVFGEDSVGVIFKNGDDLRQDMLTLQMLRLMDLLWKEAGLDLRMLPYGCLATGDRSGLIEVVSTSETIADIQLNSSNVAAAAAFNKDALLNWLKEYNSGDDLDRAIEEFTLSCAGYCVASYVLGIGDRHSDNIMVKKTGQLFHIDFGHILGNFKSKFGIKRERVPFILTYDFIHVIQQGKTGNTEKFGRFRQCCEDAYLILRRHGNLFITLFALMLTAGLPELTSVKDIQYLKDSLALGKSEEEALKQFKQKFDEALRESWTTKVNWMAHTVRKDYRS

[15] = molecular target: Phosphatidylinositol 4,5-bisphosphate 3-kinase catalytic subunit gamma isoform (Homo sapiens, UniProt P48736); experiment: Inhibition of PI3Kgamma
Phosphatidylinositol 4,5-bisphosphate 3-kinase catalytic subunit gamma isoform, sequence (P48736 whole entry, canonical isoform): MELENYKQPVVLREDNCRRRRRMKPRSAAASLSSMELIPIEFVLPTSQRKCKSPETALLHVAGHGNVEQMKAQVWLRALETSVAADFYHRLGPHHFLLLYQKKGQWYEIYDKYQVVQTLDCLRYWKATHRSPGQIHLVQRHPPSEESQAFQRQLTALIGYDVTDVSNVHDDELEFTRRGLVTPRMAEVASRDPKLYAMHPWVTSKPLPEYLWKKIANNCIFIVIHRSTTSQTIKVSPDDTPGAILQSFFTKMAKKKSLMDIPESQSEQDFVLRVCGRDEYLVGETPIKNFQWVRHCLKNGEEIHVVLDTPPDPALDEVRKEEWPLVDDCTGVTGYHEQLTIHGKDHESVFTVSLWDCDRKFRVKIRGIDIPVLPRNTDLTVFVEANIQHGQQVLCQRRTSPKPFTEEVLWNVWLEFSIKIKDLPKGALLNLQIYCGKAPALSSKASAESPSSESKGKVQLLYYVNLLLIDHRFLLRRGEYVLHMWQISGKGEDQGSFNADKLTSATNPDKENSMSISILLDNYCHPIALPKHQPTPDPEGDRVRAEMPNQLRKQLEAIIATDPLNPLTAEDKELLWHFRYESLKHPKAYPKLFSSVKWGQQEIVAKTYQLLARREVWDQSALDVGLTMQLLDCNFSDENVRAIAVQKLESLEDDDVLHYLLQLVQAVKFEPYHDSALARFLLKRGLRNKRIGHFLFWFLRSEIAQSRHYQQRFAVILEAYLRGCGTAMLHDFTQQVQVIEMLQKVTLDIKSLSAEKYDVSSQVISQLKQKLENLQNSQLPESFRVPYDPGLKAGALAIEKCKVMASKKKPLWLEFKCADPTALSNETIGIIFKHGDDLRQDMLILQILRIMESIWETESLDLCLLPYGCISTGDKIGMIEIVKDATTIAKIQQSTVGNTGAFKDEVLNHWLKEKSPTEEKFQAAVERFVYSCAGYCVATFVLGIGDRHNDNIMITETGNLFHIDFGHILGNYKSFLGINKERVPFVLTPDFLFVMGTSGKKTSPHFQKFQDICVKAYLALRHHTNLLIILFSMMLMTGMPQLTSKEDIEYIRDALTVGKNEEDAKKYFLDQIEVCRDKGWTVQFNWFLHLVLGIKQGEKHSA

Mus musculus [16] = experiment: Antitumor activity against human MDA-MB-361 cells xenografted in nude mouse assessed as inhibition of tumor growth at 10 to 25 mg/kg, iv administered daily; assay type: functional, organism-based
[17] = Half life in nude mouse at 5 mg/kg, iv; assay type: ADME, organism-based; design: dose 5 mg/kg, route intravenous; details: in vivo
[18] = Metabolic stability in mouse microsomes assessed as half life; assay type: ADME, Microsome
[19] = AUC in nude mouse at 5 mg/kg, iv; assay type: ADME, organism-based; design: dose 5 mg/kg, route intravenous; details: plasma
[20] = Clearance in nude mouse at 5 mg/kg, iv; assay type: ADME, organism-based; design: dose 5 mg/kg, route intravenous; details: in vivo

Row | Structure (SMILES) | half-life [1] [min] | IC50 (LNCaP) [nM] | IC50 [2] [nM] | Ratio IC50 [3] | IC50 [4] [nM] | IC50 [5] [nM] | other results
1 | CCn1ncc2c(N3CC4CCC(C3)O4)nc(-c3ccc(NC(=O)Nc4ccc(CN(C)C)cc4)cc3)nc21 | 29 | 7 | 263 | 239 | 30 | 1.1 | –
2 | CCn1ncc2c(N3CC4CCC(C3)O4)nc(-c3ccc(NC(=O)Nc4ccc(OCCN5CCOCC5)nc4)cc3)nc21 | – | < 0.7 | – | 383 | 0.8 | 1 | solubility [6]: > 100 µg/mL
3 | CCn1ncc2c(N3CC4CCC(C3)O4)nc(-c3ccc(NC(=O)Nc4ccc(N(C)C)nc4)cc3)nc21 | – | 6 | 282 | 282 | 80 | – | –
4 | CCNC(=O)Nc1ccc(-c2nc(N3CC4CCC(C3)O4)c3cnn(CCN(C)C)c3n2)cc1 | – | 280 | – | 240 | 1800 | – | –
5 | CCn1ncc2c(N3CC4CCC(C3)O4)nc(-c3ccc(NC(=O)Nc4ccccc4)cc3)nc21 | 5 | 0.8 | 66 | 212 | 12 | – | –
6 | CCn1ncc2c(N3CC4CCC(C3)O4)nc(-c3ccc(NC(=O)Nc4ccc(CCO)cc4)cc3)nc21 | 10 | < 0.7 | – | 570 | < 0.7 | 0.1 | –
7 | O=C(Nc1ccc(-c2nc(N3CC4CCC(C3)O4)c3cnn(CC(F)(F)F)c3n2)cc1)Nc1ccc(N2CCNCC2)cc1 | – | < 0.8 | 76 | 318 | 1 | 0.2 | –
8 | CCn1ncc2c(N3CC4CCC(C3)O4)nc(-c3ccc(NC(=O)NCCN(C)C)cc3)nc21 | – | 350 | – | 16 | 1250 | 51 | –
9 | CCNC(=O)Nc1ccc(-c2nc(N3CC4CCC(C3)O4)c3cnn(CC)c3n2)cc1 | – | 16 | – | 2230 | 80 | 0.6 | –
10 | CCn1ncc2c(N3CC4CCC(C3)O4)nc(-c3ccc(NC(=O)Nc4ccc(NCCN(C)C)cc4)cc3)nc21 | 14 | 2.8 | 207 | 122 | 7 | 1.7 | –
11 | CCn1ncc2c(N3CC4CCC(C3)O4)nc(-c3ccc(NC(=O)Nc4ccc(N5CCOCC5)cc4)cc3)nc21 | 6 | < 0.7 | – | 972 | < 0.7 | 0.2 | –
12 | CCn1ncc2c(N3CC4CCC(C3)O4)nc(-c3ccc(NC(=O)Nc4ccc(CN5CCN(C)CC5)cc4)cc3)nc21 | > 30 | < 0.8 | 320 | 451 | 0.8 | 0.7 | –
13 | CCn1ncc2c(N3CC4CCC(C3)O4)nc(-c3ccc(NC(=O)Nc4ccc(C(=O)NN(C)C)cc4)cc3)nc21 | 23 | < 0.7 | – | 350 | < 0.7 | 0.3 | –
14 | CCn1ncc2c(N3CC4CCC(C3)O4)nc(-c3ccc(NC(=O)Nc4ccc(N5CCCC5)cc4)cc3)nc21 | 5 | 55 | – | 243 | 120 | – | –
15 | CCn1ncc2c(N3CC4CCC(C3)O4)nc(-c3ccc(NC(=O)Nc4ccc(N5CCN(C)CC5)cc4)cc3)nc21 | > 30 | < 0.7 | 51 | 188 | < 0.7 | 0.3 | –
16 | CCn1ncc2c(N3CC4CCC(C3)O4)nc(-c3ccc(NC(=O)Nc4ccc(N5CCOCC5)nc4)cc3)nc21 | – | 0.8 | – | 7300 | 8 | 0.3 | –
17 | CCn1ncc2c(N3CC4CCC(C3)O4)nc(-c3ccc(NC(=O)Nc4ccc(N(C)CCN(C)C)cc4)cc3)nc21 | 14 | 0.8 | 256 | 295 | 0.8 | 0.9 | –
18 | CCn1ncc2c(N3CC4CCC(C3)O4)nc(-c3ccc(NC(=O)Nc4ccc(CO)cc4)cc3)nc21 | 11 | < 0.7 | – | 335 | < 0.7 | 0.1 | –
19 | CCn1ncc2c(N3CC4CCC(C3)O4)nc(-c3ccc(NC(=O)Nc4ccc(OCCN(C)C)cc4)cc3)nc21 | > 30 | < 0.7 | 136 | 172 | 8 | 0.8 | –
20 | CN1CCN(c2ccc(NC(=O)Nc3ccc(-c4nc(N5CC6CCC(C5)O6)c5cnn(CC(F)(F)F)c5n4)cc3)cc2)CC1 | 24 | < 0.8 | 150 | 237 | 1.5 | 0.6 | Activity (MDA-MB-361 [7]): Active; concentration at 8 h [8]: 2500 ng/mL; Activity (Mus musculus [9]): Non-toxic; Activity (Mus musculus [10]): Active; Activity (Mus musculus [11]): Active; Activity (MDA-MB-361 [12]): Active; Vd [13]: 1.2 L/kg; IC50 [14]: > 10000 nM; IC50 [15]: > 10000 nM; Activity (Mus musculus [16]): Active; half-life [17]: 174 min; half-life [18]: > 30 min; AUC [19]: 12500 ng·h/mL; clearance [20]: 7 mL/min/kg
21 | CN(C)CCn1ncc2c(N3CC4CCC(C3)O4)nc(-c3ccc(NC(=O)Nc4cccnc4)cc3)nc21 | – | 50 | – | 89 | 220 | – | –
22 | CCn1ncc2c(N3CC4CCC(C3)O4)nc(-c3ccc(NC(=O)Nc4ccc(C(=O)NN5CCCC5)cc4)cc3)nc21 | > 30 | < 0.7 | – | 586 | 4 | 0.2 | –
23 | CCn1ncc2c(N3CC4CCC(C3)O4)nc(-c3ccc(NC(=O)Nc4cccnc4)cc3)nc21 | 4 | < 0.8 | 148 | 1120 | 1.2 | 0.1 | –
24 | CCn1ncc2c(N3CC4CCC(C3)O4)nc(-c3ccc(NC(=O)Nc4ccc(CN)cc4)cc3)nc21 | > 30 | < 0.8 | 21 | 95 | < 0.8 | 0.2 | –
25 | CCn1ncc2c(N3CC4CCC(C3)O4)nc(-c3ccc(NC(=O)Nc4ccc(N5CCN(C)CC5)nc4)cc3)nc21 | > 30 | < 0.7 | – | 275 | 0.8 | 0.7 | solubility [6]: > 100 µg/mL
26 | CCn1ncc2c(N3CC4CCC(C3)O4)nc(-c3ccc(NC(=O)Nc4ccc(NC)nc4)cc3)nc21 | – | 17 | – | 302 | 200 | – | –
